According to publication PMC3767324, “Synthesis, Characterization, and BSA Binding Studies of Some New Benzamides Related to Schiff Base” (ISRN Organic Chemistry, 2013):
In brackets after ≈: the same amount, converted by molar mass.

Experiments:
A. niger [1] = test: agar disc diffusion, zone of inhibition; format: cell-based; conditions: Aspergillus niger; A. niger; discs 6 mm, test compounds 100 µg/mL in DMSO, standards 10 µg/disc; 28°C 48 h; average of three replicates; read-out: zone of inhibition
Description: [The procedure below names another organism; the source lists this organism under the same test.] (§1) The in vitro antimicrobial screening effects of the compounds (3 and 5a–j) were individually tested against a panel of bacteria and fungi including Staphylococcus aureus (NCIM 5021), Bacillus subtilis (NCIM 2999), Pseudomonas aeruginosa (NCIM 5029), Escherichia coli (NCIM 2574), Candida. albicans (NCIM 3471), and Aspergillus flavus (NCIM 524). Microbial strains were cultured overnight at 37°C in nutrient and potato dextrose agar medium. All the pure microbial strains were obtained from National Chemical Laboratory (NCL), Pune, India.
(§2) The antibacterial activity of compounds was determined by agar disc diffusion method. Briefly, a suspension of tested bacterial strains was spread on the nutrient agar medium and potato dextrose agar for fungi. The discs (6 mm in diameter) impregnated with test chemicals each dissolved in concentration (100 μg/mL in DMSO) were placed on the inoculated agar and these plates were kept at 4°C for 2 h. The plate was incubated at 37°C for 24 h in case of bacteria and 48 h at 28°C in case of fungi. streptomycin (10 μg/disc) and fluconazole (10 μg/disc) were used as the standards for antibacterial and antifungal activity, respectively. All the samples were performed in triplicate and the zone of inhibition was measured in millimeters.

[2] = system: Staphylococcus aureus (NCIM 5021); test: agar disc diffusion, zone of inhibition; format: cell-based; conditions: Staphylococcus aureus, NCIM5021; S. aureus; discs 6 mm, test compounds 100 µg/mL in DMSO, standards 10 µg/disc; 37°C 24 h; average of three replicates; read-out: zone of inhibition
Description: as §1, §2

[3] = system: Escherichia coli (NCIM 2574); test: agar disc diffusion, zone of inhibition; format: cell-based; conditions: Escherichia coli, NCIM2574; E. coli; discs 6 mm, test compounds 100 µg/mL in DMSO, standards 10 µg/disc; 37°C 24 h; average of three replicates; read-out: zone of inhibition
Description: as §1, §2

[4] = system: Pseudomonas aeruginosa (NCIM 5029); test: agar disc diffusion, zone of inhibition; format: cell-based; conditions: Pseudomonas aeruginosa, NCIM5029; P. aeruginosa; discs 6 mm, test compounds 100 µg/mL in DMSO, standards 10 µg/disc; 37°C 24 h; average of three replicates; read-out: zone of inhibition
Description: as §1, §2

[5] = system: Bacillus subtilis (NCIM 2999); test: agar disc diffusion, zone of inhibition; format: cell-based; conditions: Bacillus subtilis, NCIM2999; B. subtilis; discs 6 mm, test compounds 100 µg/mL in DMSO, standards 10 µg/disc; 37°C 24 h; average of three replicates; read-out: zone of inhibition
Description: as §1, §2

[6] = system: Aspergillus flavus (NCIM 524); test: agar disc diffusion, zone of inhibition; format: cell-based; conditions: Aspergillus flavus, NCIM524; A. flavus; discs 6 mm, test compounds 100 µg/mL in DMSO, standards 10 µg/disc; 28°C 48 h; average of three replicates; read-out: zone of inhibition
Description: as §1, §2

[7] = DPPH free radical scavenging activity; conditions: DPPH 0.1 mM, absorbance at 517 nm; triplicate, mean ± SD
Description: The capacity to scavenge the stable free radical 2,2-diphenyl-1-picrylhydrazyl (DPPH) was monitored according to the Blois method. The test samples (10–100 μL) were mixed with 1 mL of DPPH (0.1 mM) solution and filled up with methanol to a final volume of 4 mL. Absorbance of the resulting solution was measured at 517 nm in a visible spectrophotometer (Model 166, Systronics, India). The free radical scavenging rate of the reaction solution was calculated as a percentage (%) of DPPH decolouration using the equation (1) I(%)=(Ablank−Asample/Ablank)×100, where A blank is the absorbance of the control reaction mixture excluding the test compounds, and A sample is the absorbance of the test compounds. Radical scavenging potential was expressed as IC50 value, which represents the sample concentration at which 50% of the DPPH radicals were scavenged. Tests were carried out in triplicate and the results were expressed as mean values ± standard deviations.
DPPH radical scavenging activity evaluation is a standard assay in antioxidant activity studies and offers a rapid technique for screening the radical scavenging activity of specific compounds [24]. The free radical scavenging activity of newly synthesized compounds was tested by their ability to bleach the stable radical DPPH. The activity was monitored by following the absorption at 517 nm in a visible spectrophotometer. In the presence of any free radical scavenger, this odd electron pairs up and causes the diminishing of absorption band which is proportional to the number of electrons taken up. The activity was studied at different concentrations for each compound. […] Resulting from a color change from purple to yellow the absorbance decreased when the antioxidant molecule can quench DPPH free radical through donation of hydrogen atom or by electron donating to form a stable DPPH molecule.

A. niger [8] = test: minimum inhibitory concentration by dilution method; format: cell-based; conditions: Aspergillus niger; A. niger; dilution method; average of three replicates; read-out: MIC
Description: [The procedure below names another organism; the source lists this organism under the same test.] as §1
(§3) The minimum inhibitory concentration of the synthesized compounds was determined by dilution method. The compounds were dissolved and then diluted using DMSO; two-fold serial concentrations of the compounds were employed to determine the MIC. In this method, the test concentrations of chemically synthesized compounds were made from 5 to 125 μg/mL.

[9] = system: Staphylococcus aureus (NCIM 5021); test: as above; format: cell-based; conditions: Staphylococcus aureus, NCIM5021; S. aureus; dilution method; average of three replicates; read-out: MIC
Description: as §1, §3

[10] = system: Escherichia coli (NCIM 2574); test: as above; format: cell-based; conditions: Escherichia coli, NCIM2574; E. coli; dilution method; average of three replicates; read-out: MIC
Description: as §1, §3

[11] = system: Pseudomonas aeruginosa (NCIM 5029); test: as above; format: cell-based; conditions: Pseudomonas aeruginosa, NCIM5029; P. aeruginosa; dilution method; average of three replicates; read-out: MIC
Description: as §1, §3

[12] = system: Bacillus subtilis (NCIM 2999); test: as above; format: cell-based; conditions: Bacillus subtilis, NCIM2999; B. subtilis; dilution method; average of three replicates; read-out: MIC
Description: as §1, §3

[13] = system: Aspergillus flavus (NCIM 524); test: as above; format: cell-based; conditions: Aspergillus flavus, NCIM524; A. flavus; dilution method; average of three replicates; read-out: MIC
Description: as §1, §3

[14] = superoxide radical scavenging assay (NBT, xanthine-xanthine oxidase system); format: biochemical; conditions: NBT reduction, pH 7.8, 560 nm, three replicates
Description: Superoxide radical scavenging activity was measured as described by Kovala-Demertzi et al., (2004). The assay is based on the reduction of nitroblue tetrazolium (NBT) by superoxide ions generated by the xanthine-xanthine oxidase system (X–XO). The reaction system contained 0.2 mM xanthine and 0.6 mM NBT in 0.1 M phosphate buffer, pH 7.8. The tested compounds were dissolved in methanol. The reaction was started by addition of XO (0.07 U mL^−1), an activity which allowed to yield the absorbance change between 0.03 and 0.04 per minute, at 560 nm. The extent of NBT reduction was followed spectrophotometrically, by measuring the increase of the absorbance at 560 nm. All the experiments were replicated three times. The IC50 of each compound was defined as the concentration which inhibited 50% of the NBT reduction by O2 ^•− produced in the X–XO system.
Superoxide anion radical is normally initially formed, and its effects can be magnified because it produces other kinds of free radicals and oxidizing agents. The enzymatic superoxide anion radical was generated by the xanthine/xanthine oxidase reaction system. The production of superoxide was estimated by the nitroblue tetrazolium method. […] Differently, in the m-position, methoxy and hydroxyl groups act as an electron-withdrawing properties, ([…]), which are possible for providing a destabilizing effect.

Compound: CC(=O)N(C(=O)c1ccc([N+](=O)[O-])cc1)c1ccc(N=Cc2cc3ccccc3o2)cc1 [Compound 5e, N-acetyl-N-(4-((benzofuran-2-ylmethylene)amino)phenyl)-4-nitrobenzamide]
- zone of inhibition at 100 µg/mL (A. niger [1]): 14.1 mm
- zone of inhibition at 100 µg/mL [2]: 14 mm
- zone of inhibition at 100 µg/mL [3]: 9 mm
- zone of inhibition at 100 µg/mL [4]: 11 mm
- zone of inhibition at 100 µg/mL [5]: 11 mm
- zone of inhibition at 100 µg/mL [6]: 13.6 mm
- IC50 DPPH [7]: 87.4 ± 0.31 µg/mL (≈ 204 µM)
- MIC (A. niger [8]): 20 µg/mL (≈ 46.8 µM)
- MIC [9]: 15 µg/mL (≈ 35.1 µM)
- MIC [10]: 25 µg/mL (≈ 58.5 µM)
- MIC [11]: 25 µg/mL (≈ 58.5 µM)
- MIC [12]: 15 µg/mL (≈ 35.1 µM)
- MIC [13]: 20 µg/mL (≈ 46.8 µM)
- IC50 Superoxide [14]: 79.2 ± 0.24 µg/mL (≈ 185 µM)
- melting point: 182 °C
